± gives the expanded uncertainty stated by the source.
Key:
[1] = 100 kPa, Liquid; for speed of sound: Frequency=3 MHz, Single path-length method; for mass density: Vibrating tube method
[2] = xn = mol fraction of the nth substance listed; conditions: 100 kPa, Liquid, x1 = 1; for speed of sound: Frequency=3 MHz, Single path-length method; for mass density: Vibrating tube method

OCCCCO [1,4-butanediol]
[1]
Conditions	mass density [kg/m3]	speed of sound [m/s]
298.15 K	1012.8 ± 2	1601.9 ± 1.1
303.15 K	1009.77 ± 2	1590.3 ± 1.1
308.15 K	1006.74 ± 2	1578.6 ± 1.1
313.15 K	1003.7 ± 2	1567 ± 1.1
318.15 K	1000.67 ± 2	1555.3 ± 1.1
323.15 K	997.63 ± 2	1543.7 ± 1.1

CCCC(=O)OCC [ethyl butanoate] + CCC(O)CO
[2]
Conditions	mass density [kg/m3]	speed of sound [m/s]
298.15 K	874.31 ± 2	1171.8 ± 1
303.15 K	868.85 ± 2	1151.1 ± 1
308.15 K	863.4 ± 2	1130.2 ± 1
313.15 K	857.94 ± 2	1109 ± 1
318.15 K	852.49 ± 2	1088 ± 1
323.15 K	847.03 ± 2	1067.1 ± 1

CC(O)CCO (centres undefined) [1,3-butanediol]
[1]
Conditions	mass density [kg/m3]	speed of sound [m/s]
298.15 K	1001.87 ± 2	1527.9 ± 1.4
303.15 K	998.41 ± 2	1514 ± 1.4
308.15 K	994.94 ± 2	1500.1 ± 1.4
313.15 K	991.49 ± 2	1486.2 ± 1.4
318.15 K	988.02 ± 2	1472.3 ± 1.4
323.15 K	984.56 ± 2	1458.4 ± 1.4

CCCC(=O)OCC [ethyl butanoate] + CC(O)CCO
[2]
Conditions	mass density [kg/m3]	speed of sound [m/s]
298.15 K	874.31 ± 2	1171.8 ± 1
303.15 K	868.85 ± 2	1151.1 ± 1
308.15 K	863.4 ± 2	1130.2 ± 1
313.15 K	857.94 ± 2	1109 ± 1
318.15 K	852.49 ± 2	1088 ± 1
323.15 K	847.03 ± 2	1067.1 ± 1

CCCC(=O)OCC [ethyl butanoate] + OCCCCO
[2]
Conditions	mass density [kg/m3]	speed of sound [m/s]
298.15 K	874.31 ± 2	1171.8 ± 1
303.15 K	868.85 ± 2	1151.1 ± 1
308.15 K	863.4 ± 2	1130.2 ± 1
313.15 K	857.94 ± 2	1109 ± 1
318.15 K	852.49 ± 2	1088 ± 1
323.15 K	847.03 ± 2	1067.1 ± 1

CCCC(=O)OCC [ethyl butanoate]
[1]
Conditions	mass density [kg/m3]	speed of sound [m/s]
298.15 K	874.31 ± 2	1171.8 ± 1
303.15 K	868.85 ± 2	1151.1 ± 1
308.15 K	863.4 ± 2	1130.2 ± 1
313.15 K	857.94 ± 2	1109 ± 1
318.15 K	852.49 ± 2	1088 ± 1
323.15 K	847.03 ± 2	1067.1 ± 1

CCC(O)CO (centres undefined) [1,2-butanediol]
[1]
Conditions	mass density [kg/m3]	speed of sound [m/s]
298.15 K	998.56 ± 2	1452.5 ± 1.4
303.15 K	994.75 ± 2	1437.9 ± 1.4
308.15 K	990.92 ± 2	1423.3 ± 1.4
313.15 K	987.11 ± 2	1408.7 ± 1.4
318.15 K	983.28 ± 2	1394.1 ± 1.4
323.15 K	979.46 ± 2	1379.5 ± 1.4

— the NIST ThermoML archive (doi:10.1016/j.jct.2019.05.002)
